For orientation: inhibition means the change of the read-out against control, counted positive when it falls.

Sequence of S. aureus GyrB ATPase (P0AES4 whole entry): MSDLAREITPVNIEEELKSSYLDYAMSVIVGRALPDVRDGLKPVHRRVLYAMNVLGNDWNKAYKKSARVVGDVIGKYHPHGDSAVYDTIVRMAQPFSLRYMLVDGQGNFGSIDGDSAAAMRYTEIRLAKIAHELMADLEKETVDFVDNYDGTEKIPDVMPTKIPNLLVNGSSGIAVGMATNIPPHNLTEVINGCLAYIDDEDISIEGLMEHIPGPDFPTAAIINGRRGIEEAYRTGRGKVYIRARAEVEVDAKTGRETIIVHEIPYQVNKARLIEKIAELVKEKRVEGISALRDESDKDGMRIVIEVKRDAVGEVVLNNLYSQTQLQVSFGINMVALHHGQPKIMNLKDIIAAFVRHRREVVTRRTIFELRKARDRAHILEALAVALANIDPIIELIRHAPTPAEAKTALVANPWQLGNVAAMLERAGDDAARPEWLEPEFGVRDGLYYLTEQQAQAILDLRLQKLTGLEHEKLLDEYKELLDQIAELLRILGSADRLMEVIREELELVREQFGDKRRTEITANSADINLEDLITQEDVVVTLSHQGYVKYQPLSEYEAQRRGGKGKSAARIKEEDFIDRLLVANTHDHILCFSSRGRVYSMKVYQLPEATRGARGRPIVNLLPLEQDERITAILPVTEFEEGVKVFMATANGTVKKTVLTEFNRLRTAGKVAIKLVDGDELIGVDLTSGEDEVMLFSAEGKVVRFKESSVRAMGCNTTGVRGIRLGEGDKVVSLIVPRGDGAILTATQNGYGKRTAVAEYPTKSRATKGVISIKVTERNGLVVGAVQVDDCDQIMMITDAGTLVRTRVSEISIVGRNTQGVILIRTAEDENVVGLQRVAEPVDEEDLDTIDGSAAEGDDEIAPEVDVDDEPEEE
Sequence of S. aureus GyrB ATPase (P0A0K8 whole entry): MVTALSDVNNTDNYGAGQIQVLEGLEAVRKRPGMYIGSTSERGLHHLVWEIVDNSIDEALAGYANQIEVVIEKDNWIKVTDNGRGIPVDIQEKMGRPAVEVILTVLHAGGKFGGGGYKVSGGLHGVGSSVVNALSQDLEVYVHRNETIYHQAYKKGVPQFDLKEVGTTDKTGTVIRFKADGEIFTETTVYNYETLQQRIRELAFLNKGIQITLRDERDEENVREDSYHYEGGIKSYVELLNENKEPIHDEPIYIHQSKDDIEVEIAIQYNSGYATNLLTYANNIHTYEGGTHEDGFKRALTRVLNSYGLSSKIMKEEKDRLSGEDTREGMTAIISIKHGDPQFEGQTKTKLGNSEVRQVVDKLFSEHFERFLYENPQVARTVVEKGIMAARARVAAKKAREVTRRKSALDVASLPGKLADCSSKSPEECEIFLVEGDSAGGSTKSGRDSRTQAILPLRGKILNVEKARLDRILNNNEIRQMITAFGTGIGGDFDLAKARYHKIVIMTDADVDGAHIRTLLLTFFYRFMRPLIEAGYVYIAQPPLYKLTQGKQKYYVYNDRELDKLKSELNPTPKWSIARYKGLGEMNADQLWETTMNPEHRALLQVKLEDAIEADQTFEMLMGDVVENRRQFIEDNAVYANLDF

The target of this test is S. aureus GyrB ATPase (Staphylococcus aureus, UniProt P0A0K8). The test can be described thus: S. aureus GyrB ATPase inhibition (ammonium molybdate/malachite green phosphate detection). In kind it is biochemical. Particulars: compound concentration of 1 μM. The procedure:
S. aureus GyrB ATPase Inhibition Activity: Compounds may be tested for inhibition of S. aureus GyrB ATPase activity using an ammonium molybdate/malachite green-based phosphate detection assay (Lanzetta, P. A., L. J. Alvarez, P. S. Reinach, and O. A. Candia, 1979, 100: 95-97). Assays can be performed in multiwell plates in 30 μl reactions containing: 50 mM Hepes buffer pH 7.5, 75 mM ammonium acetate, 8.0 mM magnesium chloride, 0.5 mM ethylenediaminetetraacetic acid, 5% glycerol, 1.0 mM 1,4-Dithio-DL-threitol, 200 nM bovine serum albumin, 1.0 μg/ml sheared salmon sperm DNA, 250 pM E. coli GyrA, 250 pM S. aureus GyrB, 250 μM ATP, and compound in dimethylsulfoxide. Reactions can be quenched with […] of ammonium molybdate/malachite green detection reagent containing 1.2 mM malachite green hydrochloride, 8.5 mM ammonium molybdate tetrahydrate, and 1 M hydrochloric acid. Plates can be read in an absorbance plate reader at 650 nm and percent inhibition values can be calculated using dimethylsulfoxide (2%)-containing reactions as 0% inhibition and EDTA-containing ([…]) reactions as 100% inhibition controls. An IC50 measurement of compound potency for each compound can be determined from reactions performed in the presence of 10 different compound concentrations.
Compounds of the invention were tested in an assay substantially similar to the assay described above for measuring the inhibition of S. aureus GyrB ATPase. Percent inhibition of S. aureus GyrB ATPase at a compound concentration of 1 μM (unless otherwise noted) is disclosed in the following table: […]
On to `COCCn1ccnc1-c1nc(N2CC[C@@H](NC(=O)c3[nH]c(C)c(Cl)c3Cl)[C@@H](OC)C2)sc1C(=O)O` [Example 25, 2-((3S,4R)-4-{[(3,4-Dichloro-5-methyl-1H-pyrrol-2-yl)carbonyl]amino}-3-methoxypiperidin-1-yl)-4-[1-(2-methoxyethyl)-1H-imidazol-2-yl]-1,3-thiazole-5-carboxylic acid], for which the inhibition at 1 µM is 98.3%. As for `COCCn1ccnc1-c1nc(N2CC[C@@H](NC(=O)c3[nH]c(C)c(Cl)c3Cl)[C@@H](F)C2)sc1C(=O)O` [Example 26, 2-((3S,4R)-4-{[(3,4-Dichloro-5-methyl-1H-pyrrol-2-yl)carbonyl]amino}-3-fluoropiperidin-1-yl)-4-[1-(2-methoxyethyl)-1H-imidazol-2-yl]-1,3-thiazole-5-carboxylic acid], the figure is 97.4%. As for `CO[C@H]1CN(c2nc(-c3ncnn3C)c(C(=O)O)s2)CC[C@H]1NC(=O)c1[nH]c(C)c(Cl)c1Cl` [Example 27, 2-((3S,4R)-4-{[(3,4-Dichloro-5-methyl-1H-pyrrol-2-yl)carbonyl]amino}-3-methoxypiperidin-1-yl)-4-(1-methyl-1H-1,2,4-triazol-5-yl)-1,3-thiazole-5-carboxylic acid], the figure is 99.9%. For `Cc1[nH]c(C(=O)N[C@@H]2CCN(c3nc(-c4ncnn4C)c(C(=O)O)s3)C[C@@H]2F)c(Cl)c1Cl` [Example 28, 2-((3S,4R)-4-{[(3,4-Dichloro-5-methyl-1H-pyrrol-2-yl)carbonyl]amino}-3-fluoropiperidin-1-yl)-4-(1-methyl-1H-1,2,4-triazol-5-yl)-1,3-thiazole-5-carboxylic acid], the inhibition at 1 µM worked out at 87.1%. In the case of `CO[C@H]1CN(c2nc(-c3ncnn3C)c(C(=O)O)s2)CC[C@H]1NC(=O)c1[nH]c(C)c(C#N)c1Cl` [Example 29, 2-((3S,4R)-4-{[(3-Chloro-4-cyano-5-methyl-1H-pyrrol-2-yl)carbonyl]amino}-3-methoxypiperidin-1-yl)-4-(1-methyl-1H-1,2,4-triazol-5-yl)-1,3-thiazole-5-carboxylic acid] it was 101%. In the case of `COCCn1ccnc1-c1nc(N2CC[C@@H](NC(=O)c3[nH]c(C)c(C#N)c3Cl)[C@@H](OC)C2)sc1C(=O)O` [Example 30, 2-((3S,4R)-4-{[(3-Chloro-4-cyano-5-methyl-1H-pyrrol-2-yl)carbonyl]amino}-3-methoxypiperidin-1-yl)-4-[1-(2-methoxyethyl)-1H-imidazol-2-yl]-1,3-thiazole-5-carboxylic acid], the inhibition at 1 µM stood at 102%. In the case of `CO[C@H]1CN(c2nc(-c3ncnn3C)c(C(=O)O)s2)CC[C@H]1NC(=O)c1cc(C#N)c(C)[nH]1` [Example 31, 2-((3S,4R)-4-{[(4-Cyano-5-methyl-1H-pyrrol-2-yl)carbonyl]amino}-3-methoxypiperidin-1-yl)-4-(1-methyl-1H-1,2,4-triazol-5-yl)-1,3-thiazole-5-carboxylic acid] it was 99.3%; in that of `CO[C@H]1CN(c2nc(-c3nc(C)c(C)n3C)c(C(=O)O)s2)CC[C@H]1NC(=O)c1[nH]c(C)c(Cl)c1Cl` [Example 32, 2-((3S,4R)-4-{[(3,4-Dichloro-5-methyl-1H-pyrrol-2-yl)carbonyl]amino}-3-methoxypiperidin-1-yl)-4-(1,4,5-trimethyl-1H-imidazol-2-yl)-1,3-thiazole-5-carboxylic acid], 99.9%; in that of `CO[C@H]1CN(c2nc(-c3csc(N)n3)c(C(=O)O)s2)CC[C@H]1NC(=O)c1[nH]c(C)c(Cl)c1Cl` [Example 33, 2′-Amino-2-((3S,4R)-4-{[(3,4-dichloro-5-methyl-1H-pyrrol-2-yl)carbonyl]amino}-3-methoxypiperidin-1-yl)-4,4′-bi-1,3-thiazole-5-carboxylic acid], 101%. In the case of `CNc1nc(-c2nc(N3CC[C@@H](NC(=O)c4[nH]c(C)c(Cl)c4Cl)[C@@H](OC)C3)sc2C(=O)O)cs1` [Example 34, 2-((3S,4R)-4-{[(3,4-Dichloro-5-methyl-1H-pyrrol-2-yl)carbonyl]amino}-3-methoxypiperidin-1-yl)-2′-(methylamino)-4,4′-bi-1,3-thiazole-5-carboxylic acid], the inhibition at 1 µM amounted to 99.6%. In the case of `CO[C@H]1CN(c2nc(-c3csc(N(C)C)n3)c(C(=O)O)s2)CC[C@H]1NC(=O)c1[nH]c(C)c(Cl)c1Cl` [Example 35, 2-((3S,4R)-4-{[(3,4-Dichloro-5-methyl-1H-pyrrol-2-yl)carbonyl]amino}-3-methoxypiperidin-1-yl)-2′-(dimethylamino)-4,4′-bi-1,3-thiazole-5-carboxylic acid] it was 96.6%.

Consider `Cc1[nH]c(C(=O)N[C@@H]2CCN(c3nc(-c4csc(N)n4)c(C(=O)O)s3)C[C@@H]2F)c(Cl)c1Cl` [Example 36, 2′-Amino-2-((3S,4R)-4-{[(3,4-dichloro-5-methyl-1H-pyrrol-2-yl)carbonyl]amino}-3-fluoropiperidin-1-yl)-4,4′-bi-1,3-thiazole-5-carboxylic acid], for which the inhibition at 1 µM came to 99.6%. In the case of `CNc1nc(-c2nc(N3CC[C@@H](NC(=O)c4[nH]c(C)c(Cl)c4Cl)[C@@H](F)C3)sc2C(=O)O)cs1` [Example 37, 2-((3S,4R)-4-{[(3,4-Dichloro-5-methyl-1H-pyrrol-2-yl)carbonyl]amino}-3-fluoropiperidin-1-yl)-2′-(methylamino)-4,4′-bi-1,3-thiazole-5-carboxylic acid] it was 101%; in that of `Cc1[nH]c(C(=O)N[C@@H]2CCN(c3nc(-c4csc(N(C)C)n4)c(C(=O)O)s3)C[C@@H]2F)c(Cl)c1Cl` [Example 38, 2-((3S,4R)-4-{[(3,4-Dichloro-5-methyl-1H-pyrrol-2-yl)carbonyl]amino}-3-fluoropiperidin-1-yl)-2′-(dimethylamino)-4,4′-bi-1,3-thiazole-5-carboxylic acid], 97.3%; in that of `Cc1[nH]c(C(=O)N[C@@H]2CCN(c3nc(-c4nccn4C)c(C(=O)O)s3)C[C@@H]2F)c(Cl)c1Cl` [Example 39, 2-((3S,4R)-4-{[(3,4-Dichloro-5-methyl-1H-pyrrol-2-yl)carbonyl]amino}-3-fluoropiperidin-1-yl)-4-(1-methyl-1H-imidazol-2-yl)-1,3-thiazole-5-carboxylic acid], 101%. For the molecule `CO[C@H]1CN(c2nc(-c3cn(C)cn3)c(C(=O)O)s2)CC[C@H]1NC(=O)c1[nH]c(C)c(Cl)c1Cl` [Example 40, 2-((3S,4R)-4-{[(3,4-Dichloro-5-methyl-1H-pyrrol-2-yl)carbonyl]amino}-3-methoxypiperidin-1-yl)-4-(1-methyl-1H-imidazol-4-yl)-1,3-thiazole-5-carboxylic acid], the inhibition at 1 µM worked out at 101%.

In the case of `Cc1[nH]c(C(=O)N[C@@H]2CCN(c3nc(-c4cn(C)cn4)c(C(=O)O)s3)C[C@@H]2F)c(Cl)c1Cl` [Example 41, 2-((3S,4R)-4-{[(3,4-Dichloro-5-methyl-1H-pyrrol-2-yl)carbonyl]amino}-3-fluoropiperidin-1-yl)-4-(1-methyl-1H-imidazol-4-yl)-1,3-thiazole-5-carboxylic acid], the inhibition at 1 µM turned out to be 104%. In the case of `COc1ccnc(-c2nc(N3CC[C@@H](NC(=O)c4[nH]c(C)c(Cl)c4Cl)[C@@H](OC)C3)sc2C(=O)O)n1` [Example 42, 2-((3S,4R)-4-{[(3,4-Dichloro-5-methyl-1H-pyrrol-2-yl)carbonyl]amino}-3-methoxypiperidin-1-yl)-4-(4-methoxypyrimidin-2-yl)-1,3-thiazole-5-carboxylic acid] it was 99.9%; in that of `CCOC(=O)c1sc(N2CC[C@@H](NC(=O)c3[nH]c(C)c(Cl)c3Cl)[C@@H](OC)C2)nc1-c1ncccn1` [Example 43, Ethyl 2-((3S,4R)-4-{[(3,4-dichloro-5-methyl-1H-pyrrol-2-yl)carbonyl]amino}-3-methoxypiperidin-1-yl)-4-pyrimidin-2-yl-1,3-thiazole-5-carboxylate], 102%; in that of `COC(=O)c1sc(N2CC[C@@H](NC(=O)c3[nH]c(C)c(Cl)c3Cl)[C@@H](OC)C2)nc1-c1nccs1` [Example 44], 99.6%. As for `CCOC(=O)c1sc(N2CC[C@@H](NC(=O)c3[nH]c(C)c(Cl)c3Cl)[C@@H](F)C2)nc1-c1ncccn1` [Example 45], the figure is 100%. In the case of `CCOC(=O)c1sc(N2CC[C@@H](NC(=O)c3[nH]c(C)c(Cl)c3Cl)[C@@H](F)C2)nc1-c1ccncn1` [Example 46] it was 102%.

For `COC(=O)c1sc(N2CC[C@@H](NC(=O)c3[nH]c(C)c(Cl)c3Cl)[C@@H](F)C2)nc1-c1nccs1` [Example 47], the inhibition at 1 µM turned out to be 101%. In the case of `CCOC(=O)c1sc(N2CC[C@@H](NC(=O)c3[nH]c(C)c(Cl)c3Cl)[C@@H](OC)C2)nc1-c1ccccn1` [Example 48], the inhibition at 1 µM worked out at 100%.

On to `CCOC(=O)c1sc(N2CC[C@@H](NC(=O)c3[nH]c(C)c(Cl)c3Cl)[C@@H](F)C2)nc1-c1ccccn1` [Example 49], for which the inhibition at 1 µM came out at 112%.

Consider `CCOC(=O)c1sc(N2CC[C@@H](NC(=O)c3[nH]c(C)c(Cl)c3Cl)[C@@H](OC)C2)nc1-c1cc(N(C)C)nc(N(C)C)n1` [Example 50], for which the inhibition at 1 µM was 97%. As for `CCOC(=O)c1sc(N2CC[C@@H](NC(=O)c3[nH]c(C)c(Cl)c3Cl)[C@@H](OC)C2)nc1-c1nc(OC)cc(OC)n1` [Example 52], the figure is 101%.

Values taken from patent publication US20080312255A1 (ASTRAZENECA AB, priority 2007, published 2008).
